Experimental data reported in ChEMBL document CHEMBL3045021, “Synthesis, antibacterial, and antifungal activities of biolabile (E)-1-(4-morpholinophenyl)-3-aryl-prop-2-en-1-ones” (2009).
Calls of active or inactive are those of the source. The rule behind the calls is not given here.

Experiments:
Format in all cases: functional
[1] = system: Streptococcus; assay: Antimicrobial activity against beta-hemolytic Streptococcus at 200 ppm after 24 hr by disk diffusion method; details: read-out: IZ
[2] = system: Aspergillus flavus; assay: Antimicrobial activity against Aspergillus flavus at 200 ppm after 72 to 96 hr by disk diffusion method; details: read-out: IZ
[3] = system: Vibrio cholerae; assay: Antimicrobial activity against Vibrio cholerae at 100 ppm after 24 hr by disk diffusion method; details: for zone of inhibition at 100 ppm: read-out: IZ
[4] = system: Staphylococcus aureus; assay: Antimicrobial activity against Staphylococcus aureus at 100 ppm after 24 hr by disk diffusion method; details: for zone of inhibition at 100 ppm: read-out: IZ
[5] = system: Pseudomonas; assay: Antimicrobial activity against Pseudomonas at 100 ppm after 24 hr by disk diffusion method; details: for zone of inhibition at 100 ppm: read-out: IZ
[6] = system: Mucor; assay: Antimicrobial activity against Mucor at 500 ppm after 72 to 96 hr by disk diffusion method; details: read-out: IZ
[7] = system: Nannizzia gypsea; assay: Antimicrobial activity against Microsporum gypseum at 500 ppm after 72 to 96 hr by disk diffusion method; details: read-out: IZ
[8] = system: Klebsiella pneumoniae; assay: Antimicrobial activity against Klebsiella pneumoniae at 100 ppm after 24 hr by disk diffusion method; details: for zone of inhibition at 100 ppm: read-out: IZ
[9] = system: Rhizopus; assay: Antimicrobial activity against Rhizopus at 500 ppm after 72 to 96 hr by disk diffusion method; details: read-out: IZ
[10] = system: Pseudomonas; assay: Antimicrobial activity against Pseudomonas at 500 ppm after 24 hr by disk diffusion method; details: read-out: IZ
[11] = system: Vibrio cholerae; assay: Antimicrobial activity against Vibrio cholerae at 200 ppm after 24 hr by disk diffusion method; details: read-out: IZ
[12] = system: Nannizzia gypsea; assay: Antimicrobial activity against Microsporum gypseum at 200 ppm after 72 to 96 hr by disk diffusion method; details: for zone of inhibition at 200 ppm: read-out: IZ
[13] = system: Salmonella typhi; assay: Antimicrobial activity against Salmonella enterica subsp. enterica serovar Typhi at 100 ppm after 24 hr by disk diffusion method; details: for zone of inhibition at 100 ppm: read-out: IZ
[14] = system: Klebsiella pneumoniae; assay: Antimicrobial activity against Klebsiella pneumoniae at 200 ppm after 24 hr by disk diffusion method; details: read-out: IZ
[15] = system: Klebsiella pneumoniae; assay: Antimicrobial activity against Klebsiella pneumoniae at 500 ppm after 24 hr by disk diffusion method; details: read-out: IZ
[16] = system: Streptococcus; assay: Antimicrobial activity against beta-hemolytic Streptococcus at 100 ppm after 24 hr by disk diffusion method; details: for zone of inhibition at 100 ppm: read-out: IZ
[17] = system: Staphylococcus aureus; assay: Antimicrobial activity against Staphylococcus aureus at 500 ppm after 24 hr by disk diffusion method; details: read-out: IZ
[18] = system: Mucor; assay: Antimicrobial activity against Mucor at 100 ppm after 72 to 96 hr by disk diffusion method; details: for zone of inhibition at 100 ppm: read-out: IZ
[19] = system: Mucor; assay: Antimicrobial activity against Mucor at 200 ppm after 72 to 96 hr by disk diffusion method; details: read-out: IZ
[20] = system: Aspergillus flavus; assay: Antimicrobial activity against Aspergillus flavus at 100 ppm after 72 to 96 hr by disk diffusion method; details: for zone of inhibition at 100 ppm: read-out: IZ
[21] = system: Escherichia coli; assay: Antimicrobial activity against Escherichia coli at 200 ppm after 24 hr by disk diffusion method; details: read-out: IZ
[22] = system: Vibrio cholerae; assay: Antimicrobial activity against Vibrio cholerae at 500 ppm after 24 hr by disk diffusion method; details: read-out: IZ
[23] = system: Pseudomonas; assay: Antimicrobial activity against Pseudomonas at 200 ppm after 24 hr by disk diffusion method; details: read-out: IZ
[24] = system: Shigella flexneri; assay: Antimicrobial activity against Shigella flexneri at 100 ppm after 24 hr by disk diffusion method; details: for zone of inhibition at 100 ppm: read-out: IZ
[25] = system: Salmonella typhi; assay: Antimicrobial activity against Salmonella enterica subsp. enterica serovar Typhi at 500 ppm after 24 hr by disk diffusion method; details: read-out: IZ
[26] = system: Escherichia coli; assay: Antimicrobial activity against Escherichia coli at 500 ppm after 24 hr by disk diffusion method; details: read-out: IZ
[27] = system: Aspergillus flavus; assay: Antimicrobial activity against Aspergillus flavus at 500 ppm after 72 to 96 hr by disk diffusion method; details: read-out: IZ
[28] = system: Rhizopus; assay: Antimicrobial activity against Rhizopus at 100 ppm after 72 to 96 hr by disk diffusion method
[29] = system: Staphylococcus aureus; assay: Antimicrobial activity against Staphylococcus aureus at 200 ppm after 24 hr by disk diffusion method; details: read-out: IZ
[30] = system: Escherichia coli; assay: Antimicrobial activity against Escherichia coli at 100 ppm after 24 hr by disk diffusion method
[31] = system: Rhizopus; assay: Antimicrobial activity against Rhizopus at 200 ppm after 72 to 96 hr by disk diffusion method; details: for zone of inhibition at 200 ppm: read-out: IZ
[32] = system: Streptococcus; assay: Antimicrobial activity against beta-hemolytic Streptococcus at 500 ppm after 24 hr by disk diffusion method; details: read-out: IZ
[33] = system: Nannizzia gypsea; assay: Antimicrobial activity against Microsporum gypseum at 100 ppm after 72 to 96 hr by disk diffusion method; details: for zone of inhibition at 100 ppm: read-out: IZ
[34] = system: Shigella flexneri; assay: Antimicrobial activity against Shigella flexneri at 500 ppm after 24 hr by disk diffusion method; details: read-out: IZ
[35] = system: Salmonella typhi; assay: Antimicrobial activity against Salmonella enterica subsp. enterica serovar Typhi at 200 ppm after 24 hr by disk diffusion method; details: read-out: IZ
[36] = system: Shigella flexneri; assay: Antimicrobial activity against Shigella flexneri at 200 ppm after 24 hr by disk diffusion method; details: read-out: IZ

SMILES	zone of inhibition at 200 ppm [1] [mm]	zone of inhibition at 200 ppm [2] [mm]	zone of inhibition at 500 ppm [6] [mm]	zone of inhibition at 500 ppm [7] [mm]	zone of inhibition at 500 ppm [9] [mm]	zone of inhibition at 500 ppm [10] [mm]	zone of inhibition at 200 ppm [11] [mm]	zone of inhibition at 200 ppm [14] [mm]	zone of inhibition at 500 ppm [15] [mm]	zone of inhibition at 500 ppm [17] [mm]	zone of inhibition at 200 ppm [19] [mm]	zone of inhibition at 200 ppm [21] [mm]	zone of inhibition at 500 ppm [22] [mm]	zone of inhibition at 200 ppm [23] [mm]	zone of inhibition at 500 ppm [25] [mm]	zone of inhibition at 500 ppm [26] [mm]	zone of inhibition at 500 ppm [27] [mm]	zone of inhibition at 200 ppm [29] [mm]	zone of inhibition at 500 ppm [32] [mm]	zone of inhibition at 500 ppm [34] [mm]	further results
O=C(/C=C/c1ccc(Cl)cc1)c1ccc(N2CCOCC2)cc1	17	22	22	22	30	30	17	22	30	22	17	17	17	22	22	17	30	17	22	22	zone of inhibition at 100 ppm [3]: 12 mm; zone of inhibition at 100 ppm [4]: 12 mm; zone of inhibition at 100 ppm [5]: 17 mm; zone of inhibition at 100 ppm [8]: 12 mm; zone of inhibition at 200 ppm [12]: 17 mm; inhibition zone (IZ) [13]: inactive; zone of inhibition at 100 ppm [16]: 12 mm; zone of inhibition at 100 ppm [18]: 12 mm; inhibition zone (IZ) [20]: inactive; zone of inhibition at 100 ppm [24]: 17 mm; inhibition zone (IZ) [28]: inactive; zone of inhibition at 100 ppm ([30]; read-out: IZ): 12 mm; zone of inhibition at 200 ppm [31]: 17 mm; zone of inhibition at 100 ppm [33]: 12 mm; zone of inhibition at 200 ppm [35]: 17 mm; zone of inhibition at 200 ppm [36]: 17 mm
COc1ccc(/C=C/C(=O)c2ccc(N3CCOCC3)cc2)cc1	22	12	17	17	17	30	12	17	30	30	12	12	17	22	17	17	17	22	30	22	inhibition zone (IZ) [3]: inactive; zone of inhibition at 100 ppm [4]: 12 mm; zone of inhibition at 100 ppm [5]: 12 mm; inhibition zone (IZ) [8]: inactive; zone of inhibition at 200 ppm [12]: 12 mm; inhibition zone (IZ) [13]: inactive; zone of inhibition at 100 ppm [16]: 12 mm; inhibition zone (IZ) [18]: inactive; zone of inhibition at 100 ppm [20]: 12 mm; inhibition zone (IZ) [24]: inactive; inhibition zone (IZ) [28]: inactive; inhibition zone (IZ) [30]: inactive; zone of inhibition at 200 ppm [31]: 12 mm; zone of inhibition at 100 ppm [33]: 12 mm; zone of inhibition at 200 ppm [35]: 12 mm; zone of inhibition at 200 ppm [36]: 17 mm
O=C(/C=C/c1ccc(F)cc1)c1ccc(N2CCOCC2)cc1	17	17	22	30	22	30	17	12	22	22	17	17	17	22	17	17	30	17	22	22	zone of inhibition at 100 ppm [3]: 12 mm; inhibition zone (IZ) [4]: inactive; inhibition zone (IZ) [5]: inactive; inhibition zone (IZ) [8]: inactive; zone of inhibition at 200 ppm [12]: 17 mm; zone of inhibition at 100 ppm [13]: 12 mm; inhibition zone (IZ) [16]: inactive; inhibition zone (IZ) [18]: inactive; zone of inhibition at 100 ppm [20]: 12 mm; inhibition zone (IZ) [24]: inactive; inhibition zone (IZ) [28]: inactive; inhibition zone (IZ) [30]: inactive; zone of inhibition at 200 ppm [31]: 17 mm; inhibition zone (IZ) [33]: inactive; zone of inhibition at 200 ppm [35]: 17 mm; zone of inhibition at 200 ppm [36]: 17 mm
O=C(/C=C/c1ccccc1)c1ccc(N2CCOCC2)cc1	17	17	17	17	17	30	17	12	22	22	12	17	17	22	17	17	17	17	22	22	inhibition zone (IZ) [3]: inactive; zone of inhibition at 100 ppm [4]: 12 mm; zone of inhibition at 100 ppm [5]: 17 mm; zone of inhibition at 100 ppm [8]: 12 mm; zone of inhibition at 200 ppm [12]: 12 mm; inhibition zone (IZ) [13]: inactive; zone of inhibition at 100 ppm [16]: 12 mm; inhibition zone (IZ) [18]: inactive; zone of inhibition at 100 ppm [20]: 12 mm; inhibition zone (IZ) [24]: inactive; inhibition zone (IZ) [28]: inactive; inhibition zone (IZ) [30]: inactive; zone of inhibition at 200 ppm [31]: 12 mm; inhibition zone (IZ) [33]: inactive; zone of inhibition at 200 ppm [35]: 12 mm; zone of inhibition at 200 ppm [36]: 17 mm
Cc1ccc(/C=C/C(=O)c2ccc(N3CCOCC3)cc2)cc1	17	12	17	17	17	30	12	17	30	30	12	12	17	22	17	17	17	17	30	30	zone of inhibition at 100 ppm [3]: 12 mm; inhibition zone (IZ) [4]: inactive; zone of inhibition at 100 ppm [5]: 17 mm; zone of inhibition at 100 ppm [8]: 12 mm; inhibition zone (IZ) [12]: inactive; zone of inhibition at 100 ppm [13]: 12 mm; zone of inhibition at 100 ppm [16]: 12 mm; zone of inhibition at 100 ppm [18]: 12 mm; zone of inhibition at 100 ppm [20]: 12 mm; zone of inhibition at 100 ppm [24]: 12 mm; zone of inhibition at 100 ppm ([28]; read-out: IZ): 12 mm; inhibition zone (IZ) [30]: inactive; inhibition zone (IZ) [31]: inactive; zone of inhibition at 100 ppm [33]: 12 mm; zone of inhibition at 200 ppm [35]: 17 mm; zone of inhibition at 200 ppm [36]: 17 mm
